Assay [1] concerns sinoatrial node cells produced in vitro from stem cells. Description: Beat frequency of stem-cell-derived sinoatrial node cells contacted with pharmaceuticals. The format is cell-based, murine. The note with it: sinoatrial node cells of the invention contacted with pharmaceuticals.
The subject of assay [2] is isolated Tbx3-programmed cells (SA/AV pacemaker-type). Description: Single-cell patch-clamp, action potential rate of Tbx3-programmed cells. The format is cell-based, murine. The note with it: 37° C. The protocol: For the further validation of the functionality and determination of the proportions of the subtypes of the cardiomyocytes, the electrophysiological properties were analyzed by the single-cell patch-clamp technique and the measurement of the density of the HCN (or funny) channels on day 18 of the differentiation as described [14] [16].
Spontaneous action potentials and currents of contracting cardiomyocytes were recorded at 37° C. in the perforated patch configuration using a MultiClamp 700B amplifier and pClamp10 software (Molecular Devices, Union City, USA). The offline data analysis was conducted with Clampfit software (Molecular Devices, Union City, USA) or by means of Origin 6.0 software (Microcal, Northampton, USA). […] The extracellular (bath) solution contained: 140 mM NaCl, 5.4 mM KCl, 1 mM MgCl2, 1.8 mM CaCl2, 5 mM HEPES, 5.5 mM glucose; the pH was adjusted to 7.4 with NaOH. For better recording of the If, in some cases, 2 mM BaCl2 and 0.3 mM CdCl2 were added to the bath solution in order to block IKl and ICa. If was measured by stepwise change proceeding from a hold potential of −40 mV to test potentials between −130 mV and +20 mV. The current amplitude after 3 seconds during the −130 mV pulse was divided by the cell capacitance in order to determine the current (If) density. To determine the If activation kinetics, the time constant of the activation (τ) was obtained by fitting the current trace of the −130 mV step after the initial delay with the sum of two exponential functions y=A1e1 ^−x/τ)+A2e2^(−x/τ), where τ1 and τ2 are fast and slow time constants for the activation; τ1 is accordingly referred to as τ, since the slow component (A2) of the HCN channel activation is generally <10% of the current amplitude. Isoproterenol or carbachol (Sigma, Taufkirchen, Germany) was dissolved directly in the bath solution on the day of the experiment and the cells were administered by means of a rapid exchange superfusion system. APs were recorded with a 10 kHz sampling rate. The analyses were conducted on the original traces. […]
Background: In patch-clamp work, channel activity is measured electrically.

Assay [3] concerns cells originating from iSAB. Description: Single-cell patch-clamp, action potential rate of cells originating from iSAB. The format is cell-based, murine. The note with it: for AP rate: patch-clamp, 37° C. The procedure:
Spontaneous action potentials and currents of contracting cardiomyocytes were recorded at 37° C. in the perforated patch configuration using a MultiClamp 700B amplifier and pClamp10 software (Molecular Devices, Union City, USA). The offline data analysis was conducted with Clampfit software (Molecular Devices, Union City, USA) or by means of Origin 6.0 software (Microcal, Northampton, USA). […] The extracellular (bath) solution contained: 140 mM NaCl, 5.4 mM KCl, 1 mM MgCl2, 1.8 mM CaCl2, 5 mM HEPES, 5.5 mM glucose; the pH was adjusted to 7.4 with NaOH. For better recording of the If, in some cases, 2 mM BaCl2 and 0.3 mM CdCl2 were added to the bath solution in order to block IKl and ICa. If was measured by stepwise change proceeding from a hold potential of −40 mV to test potentials between −130 mV and +20 mV. The current amplitude after 3 seconds during the −130 mV pulse was divided by the cell capacitance in order to determine the current (If) density. To determine the If activation kinetics, the time constant of the activation (τ) was obtained by fitting the current trace of the −130 mV step after the initial delay with the sum of two exponential functions y=A1e1 ^−x/τ)+A2e2^(−x/τ), where τ1 and τ2 are fast and slow time constants for the activation; τ1 is accordingly referred to as τ, since the slow component (A2) of the HCN channel activation is generally <10% of the current amplitude. Isoproterenol or carbachol (Sigma, Taufkirchen, Germany) was dissolved directly in the bath solution on the day of the experiment and the cells were administered by means of a rapid exchange superfusion system. APs were recorded with a 10 kHz sampling rate. The analyses were conducted on the original traces. The inclination/slope of the linear fit of the distance from the MDP to the potential threshold is the DDR; the AP duration is the time from the threshold potential to the MDP.

Assay [4] has as its system cells derived from iSABs (Myh6-TBX3 cells). Description: Ca2+ imaging (Fluo-4) of spontaneous Ca2+ transients and SR Ca2+ stores in iSAB-derived cells. The assay is classed as cell-based, murine. The note with it: for frequency of spontaneous Ca2+ transients: 5 μM ZD 7288, 1 μM mibefradil, 1 μM nifedipine, 28° C.; for diastolic Ca2+ level: caffeine 10 mM, thapsigargin 2 μM.

The subject of assay [5] is cells derived from aCaBs. Description: Ca2+ imaging (Fluo-4) of SR Ca2+ stores in aCaB-derived control cells. The assay is classed as cell-based, murine.
For assay [6], the system named is murine ES cells. The note with it: literature [9]; cited from earlier work.

“Also recorded” adds a separate entry of the source.

With `CC(C)NCC(O)c1ccc(O)c(O)c1` (stereo not drawn) [isoproterenol], in assay [1], the beat frequency result is “increase in beat frequency”. Moreover, the AP rate result is “acceleration in the AP rate” in assay [2], “accelerated” in assay [2] (listed as isoprotenerol) and “accelerated” in assay [3]. In assay [3] (range up to), the “beat frequencies in response to isoprotenerol” value is “up to 560 bpm”.

Regarding `COCC(=O)O[C@]1(CCN(C)CCCc2nc3ccccc3[nH]2)CCc2cc(F)ccc2[C@@H]1C(C)C` [mibefradil], in assay [4], the “frequency of spontaneous Ca2+ transients” value was “moderate decrease”.

On to `Cn1c(=O)c2c(ncn2C)n(C)c1=O` [caffeine], for which, in assay [4] (blockage of Na+/Ca2+ exchanger and Ca2+ channels, iSAB-derived cells compared to aCaB-derived cells), the “caffeine-induced Ca2+ peak, sarcolemmal Ca2+ influx blocked” value was “four times greater; also recorded: large caffeine peak”. Also, the “diastolic Ca2+ level” value in assay [4] (iSAB-derived cells) is on record as “increased the diastolic Ca^2+ level”. In assay [5] (caffeine 10 mM, aCaB-derived cells), the “caffeine-induced effect on SR-Ca2+ release” value is recorded as “No similar caffeine-induced effect”.

As to `CCN(c1ccccc1)c1cc(=NC)n(C)c(C)n1.Cl` [ZD 7288], the “frequency of spontaneous Ca2+ transients” value in assay [4] is on record as “reduced the frequency of the Ca^2+ transients”; in assay [4] (listed as ZD7288), “decrease significantly”. Also, the beat frequency result in assay [1] is on record as “significant reduction in beat frequency”.

For the compound `C/C=C(/C)C(=O)O[C@H]1C(C)=C2[C@H]([C@@H]1OC(=O)CCCCCCC)[C@@](C)(OC(C)=O)C[C@H](OC(=O)CCC)[C@@]1(O)[C@H]2OC(=O)[C@@]1(C)O` [thapsigargin], the “rate of intracellular Ca2+ accumulation with SERCA inhibition” value in assay [4] (Na+/Ca2+ exchanger blocked plus SERCA inhibition, vs. no SERCA inhibition, iSAB-derived cells) is recorded as “fourfold increase”. The “diastolic Ca2+ level” value in assay [4] (iSAB-derived cells) is recorded as “increase in the Ca^2+ diastolic level; also recorded: increased diastolic Ca^2+ levels”. Besides, in assay [4] (caffeine added 5 min after incubation with thapsigargin, iSAB-derived cells), the “reduction of caffeine Ca2+ peak (factor)” value is listed as 4. In assay [5] (control cells (aCaB-derived)), the “caffeine Ca2+ peak with and without SERCA inhibition” value is reported as “remained identical”; the “intracellular Ca2+ accumulation with SERCA inhibition” value is “impossible to detect any intracellular Ca^2+ accumulation”.

On to `C[N+](C)(C)CCOC(N)=O` [carbachol], for which the beat frequency result in assay [1] is on record as “significant reduction in beat frequency”. Moreover, the AP rate entry in assay [2] and in assay [3] was “slowed” in each case.

With `CCn1c(=O)[nH]c2ccccc21` [EBIO], the “formation of node cells from murine ES cells” value in assay [6] was “enhances the formation of node cells”.

The values above are taken from patent US11661582B2, “Method for producing sinoatrial node cells (pacemaker cells) from stem cells, and use of the produced sinoatrial node cells” (UNIVERSITAET ROSTOCK, priority 2013, dated 2023).
